What was measured:
[1] = test system: Jurkat cells and mouse thymocytes; test: AC preparation for efferocytosis assays (Example 2); format: cell-based, human; conditions: 3 hours
Method: (§1) AC preparation and labeling for efferocytosis assays: Jurkat cells (about 10 μm, a human T cell line) and mouse thymocytes (about 5 μm, isolated from mouse thymi) are treated with staurosporine for 3 hours to induce apoptosis. The method routinely yields greater than 90% Annexin V+ ACs (Shi et al., 2022). GA treatment at 10 mM for 1-minute leads to an increase in cell rigidity (Sosale et al., 2015). Mouse RBC are isolated from whole blood freshly and opsonized by IgG (Sosale et al., 2015). Storage at 4° C. for one-week or treatment by GA increases rigidity (Sosale et al., 2015). Mouse RBC are freshly prepared because commercial RBCs are often stored in cold conditions for shipment and thus likely already have increased rigidity. Cells will be labeled by TAMRA (10 μg/mL, 25 minutes, Invitrogen #C1171) that labels both DNA and protein (Shi et al., 2022; Bi et al., 2022). To assess uptake and acidification, ACs are fluorescently labeled by TAMRA (pH-insensitive) and pHrodo (20 ng/mL, 30 minutes, ThermoFisher #P35373, pH-sensitive and only fluoresces in acidic environments) (Shi et al., 2022; Bi et al., 2022). RBC are labeled by PKH26 which labels membrane lipids (Sigma PKH26GL-1KT) (Shi et al., 2022). Cell debris is prepared by passing labeled ACs 10 times through 27G needles (Puigdellivol et al., 2021). […] The % of macrophages that engulfed cargo will be quantified by FACS (Shi et al., 2022).

[2] = test system: Jurkat cells; test: Induction of apoptosis in Jurkat cells; format: cell-based, human; conditions: 5 μg/mL, 3 hours
Method: Apoptotic Jurkat cells were generated by treating Jurkat cells with 5 μg/mL staurosporine in RPMI-1640 medium for 3 hours at a density of 2.5×10^6 cells/mL at 37° C., 5% CO2. The method routinely yields greater than 90% Annexin V^+ apoptotic Jurkat cells. After washing in 1×DPBS, apoptotic Jurkat cells were resuspended at a concentration of 2×10^7 cells/mL in Diluent C with either PKH67 (green fluorescence) or PKH26 (red fluorescence) per the manufacturer's instruction. After labeling, the cells were rinsed twice with DMEM basal medium containing 10% HI-FBS and immediately used for efferocytosis assay. For labeling with other fluorescent probes, ACs were resuspended at a density of 2.5×10^6 cells/mL in DMEM basal media and incubated with 20 ng/mL pHrodo red (Life Technologies) and/or Hoechst 33342 solution (20 mM, 1:10,000 dilution, Thermo Scientific) for 30 minutes, or NuclearMask Blue Stain solution (1:2000 dilution, Invitrogen) for 30 minutes. TAMRA staining was applied to ACs at a concentration of 2×10^7 cells/mL in DMEMbasal medium at 10 μg/mL for 25 minutes.

[3] = test system: BMDMs; test: Engulfment of ACs with increased rigidity by BMDMs; format: cell-based, mouse; conditions: GA 10 nM, 1 minute, control and Wdfy3 knockout BMDMs
Method: as §1, with “GA treatment at 10 mM for 1-minute leads to an increase in cell rigidity (Sosale et al., 2015).” left out

SMILES	Annexin V+ ACs [1]	Annexin V+ apoptotic Jurkat cells [2]	engulfment of GA-treated (rigid) ACs by BMDMs [3]	engulfment of GA-treated (rigid) ACs by BMDMs ([3]; listed as GA)
CN[C@@H]1C[C@H]2O[C@@](C)([C@@H]1OC)n1c3ccccc3c3c4c(c5c6ccccc6n2c5c31)C(=O)NC4 [staurosporine]	greater than 90%	greater than 90%		
O=CCCCC=O [Glutaraldehyde]			increased engulfment	more effective engulfment

From patent US20250186546A1, “Compositions and Methods to Prevent, Inhibit or Treat Autoimmune and Vascular Disease” (priority 2023, published 2025)
